This passage reports IC50 results from patent publication US20250034159A1, “INHIBITORS OF EPIDERMAL GROWTH FACTOR RECEPTOR” (ORIC Pharmaceuticals, Inc., priority 2021, published 2025).

Test [1] has as its system BaF3_EGFR LR/CS cells. Kind of test: Biological Activity Assay D: BaF3 cell proliferation assay, EGFR L858R/C797S mutant (BaF3 LR/CS). Conditions: Ba/F3 EGFR, read-out: BaF3 LR/CS IC50. In kind it is cell-based.
Test [2] deals with Ba/F3_EGFR WT cells. Kind of test: Biological Activity Assay D: BaF3 cell proliferation assay, EGFR wild-type (BaF3 WT). In kind it is cell-based. Conditions: Ba/F3 EGFR, read-out: BaF3 WT IC50.
In test [3] the target is recombinant human EGFR exon 19 deletion/C797S double mutant protein (Homo sapiens (Human), UniProt P00533, C797S/DEL746-750). Kind of test: Biological Activity Assay C: biochemical assay against EGFR exon 19 deletion/C797S protein (EGFR d19/CS). The essentials:
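IC50 values were fitted with a 4-parameter model to reaction slopes taken from 90 kinetic reads spaced 120 s apart. The Phosphosens sensor/ATP working solution was 40 uM/4 mM, and compound was dosed as 16-point dilutions at 2.5% final DMSO.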

The test system of test [4] is BaF3_EGFR d19/CS cells. Briefly: Biological Activity Assay D: BaF3 cell proliferation assay, EGFR exon 19 deletion/C797S (BaF3 d19/CS). In kind it is cell-based. Conditions: Ba/F3 EGFR, read-out: BaF3 d19/CS IC50.
The mark [5] stands for this setting: BaF3_EGFR LR/CS cells, ~72 hours, CellTiter-Glo.
Setting [6] is: Ba/F3_EGFR WT cells, ~72 hours, CellTiter-Glo.
[7] abbreviates: BaF3_EGFR d19/CS cells, ~72 hours, CellTiter-Glo.

Read-outs that look alike come from different tables or passages of the source.

Sequence of recombinant human EGFR exon 19 deletion/C797S double mutant protein (P00533 other isoform, or with tags, fused parts or gaps C797S/del 1-668/del 746-750 limits assumed): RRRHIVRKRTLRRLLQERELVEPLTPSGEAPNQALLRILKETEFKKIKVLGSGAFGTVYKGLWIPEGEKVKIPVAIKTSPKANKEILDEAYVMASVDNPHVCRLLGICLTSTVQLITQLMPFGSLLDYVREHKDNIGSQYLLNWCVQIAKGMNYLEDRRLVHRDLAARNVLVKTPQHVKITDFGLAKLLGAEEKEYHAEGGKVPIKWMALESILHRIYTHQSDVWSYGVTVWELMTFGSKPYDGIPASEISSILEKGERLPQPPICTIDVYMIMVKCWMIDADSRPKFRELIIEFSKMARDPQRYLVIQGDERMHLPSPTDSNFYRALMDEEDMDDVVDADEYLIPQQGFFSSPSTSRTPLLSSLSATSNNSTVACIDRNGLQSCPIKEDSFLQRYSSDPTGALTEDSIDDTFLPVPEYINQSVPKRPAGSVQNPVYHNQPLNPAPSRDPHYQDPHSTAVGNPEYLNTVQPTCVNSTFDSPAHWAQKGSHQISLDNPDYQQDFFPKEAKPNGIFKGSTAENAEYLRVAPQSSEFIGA

Consider `CC(=O)N1CCC=C(c2cc3c(-c4cn(CC(C)(C)O)nc4-c4ccc(F)cc4)ncnc3o2)C1` [Example 208, 1-[5-{4-[3-(4-fluorophenyl)-1-(2-hydroxy-2-methylpropyl)-1H-pyrazol-4-yl]furo[2,3-d]pyrimidin-6-yl}-3,6-dihydropyridin-1 (2H)-yl]ethan-1-one], for which the IC50 in test [1] (setting [5]) is 155 nM; in test [2] (setting [6]), 1680 nM; in test [3] it was 0.4 nM; in test [4] (setting [7]), 95.7 nM.

On to `CC(=O)N1CCC=C(c2cc3c(-c4cn(C5CS(=O)(=O)C5)nc4-c4ccc(F)cc4)ncnc3o2)C1` [Example 209, 3-{4-[6-(1-acetyl-1,2,5,6-tetrahydropyridin-3-yl)furo[2,3-d]pyrimidin-4-yl]-3-(4-fluorophenyl)-1H-pyrazol-1-yl}-1λ6-thietane-1,1-dione], for which the IC50 in test [1] (setting [5]) worked out at 296 nM; in test [2] (setting [6]), 1940 nM; in test [3], 0.44 nM; in test [4] (setting [7]) it was 160 nM.

On to `C[C@@H]1C[C@H](n2cc(-c3ncnc4oc(-c5ccccc5)cc34)c(-c3ccc(F)cc3)n2)CN1S(C)(=O)=O` [Example 212, 4-{3-(4-fluorophenyl)-1-[(3S,5R)-1-(methanesulfonyl)-5-methylpyrrolidin-3-yl]-1H-pyrazol-4-yl}-6-phenylfuro[2,3-d]pyrimidine], for which the IC50 in test [1] (setting [5]) was found to be 6.71 nM; in test [2] (setting [6]), 87.8 nM; in test [3], 0.37 nM; in test [4] (setting [7]) it was 5.28 nM.

As for `CS(=O)(=O)CCCn1cc(-c2ncnc3[nH]c(-c4ccccc4)nc23)c(-c2ccc(F)cc2)n1` [Example 215, 6-{3-(4-fluorophenyl)-1-[3-(methanesulfonyl)propyl]-1H-pyrazol-4-yl}-8-phenyl-9H-purine], the IC50 in test [1] (setting [5]) turned out to be 30.8 nM; in test [2] (setting [6]) it was 2340 nM; in test [3] it was 0.26 nM; in test [4] (setting [7]) it was 83.5 nM.

For the compound `O=S1(=O)CC(n2cc(-c3ncnc4oc(-c5c[nH]cn5)cc34)c(-c3ccc(F)cc3)n2)C1` [Example 216, 3-{3-(4-fluorophenyl)-4-[6-(1H-imidazol-4-yl)furo[2,3-d]pyrimidin-4-yl]-1H-pyrazol-1-yl}-16-thietane-1,1-dione], the IC50 turned out to be 31.1 nM in test [1] (setting [5]), 2130 nM in test [2] (setting [6]), 0.06 nM in test [3] and 58.5 nM in test [4] (setting [7]).

As to `Cn1cncc1-c1cc2c(-c3cn(C4CS(=O)(=O)C4)nc3-c3ccc(F)cc3)ncnc2o1` [Example 217, 3-{3-(4-fluorophenyl)-4-[6-(1-methyl-1H-imidazol-5-yl)furo[2,3-d]pyrimidin-4-yl]-1H-pyrazol-1-yl}-16-thietane-1,1-dione], the IC50 came to 147 nM in test [1] (72 h), 1240 nM in test [2] (72 h), 0.276 nM in test [3] and 98.9 nM in test [4] (72 h).

As to `O=S1(=O)CC(n2cc(-c3ncnc4oc(-c5ccns5)cc34)c(-c3ccc(F)cc3)n2)C1` [Example 218, 3-{3-(4-fluorophenyl)-4-[6-(1,2-thiazol-5-yl)furo[2,3-d]pyrimidin-4-yl]-1H-pyrazol-1-yl}-1λ6-thietane-1,1-dione], the IC50 in test [1] (setting [5]) was determined as 158 nM; in test [2] (setting [6]), 1440 nM; in test [3] it was 0.36 nM; in test [4] (setting [7]), 103 nM.

Take `Fc1ccc(-c2nn([C@H]3C[C@H](F)C3)cc2-c2ncnc3oc(-c4ccccc4)cc23)cc1` [Example 219, 4-{1-[(1r,3r)-3-fluorocyclobutyl]-3-(4-fluorophenyl)-1H-pyrazol-4-yl}-6-phenylfuro[2,3-d]pyrimidine]: the IC50 in test [1] (setting [5]) is 221 nM; in test [2] (setting [6]), 4370 nM; in test [3] it was 1.53 nM; in test [4] (setting [7]) it was 200 nM.

For `CC1(C)CC(Cn2cc(-c3ncnc4oc(-c5ccccc5)cc34)c(-c3ccc(F)cc3)n2)O1` (stereo not shown) [Example 220, 4-{1-[(4,4-dimethyloxetan-2-yl)methyl]-3-(4-fluorophenyl)-1H-pyrazol-4-yl}-6-phenylfuro[2,3-d]pyrimidine], the IC50 in test [1] (setting [5]) was found to be 37.2 nM; in test [2] (setting [6]), 1040 nM; in test [3], 0.55 nM; in test [4] (setting [7]), 111 nM.

On to `Cc1noc(-c2cc3c(-c4cn(C5CS(=O)(=O)C5)nc4-c4ccc(F)cc4)ncnc3o2)n1` [Example 223, 3-{3-(4-fluorophenyl)-4-[6-(3-methyl-1,2,4-oxadiazol-5-yl)furo[2,3-d]pyrimidin-4-yl]-1H-pyrazol-1-yl}-1λ6-thietane-1,1-dione], for which the IC50 in test [1] (setting [5]) was 2200 nM; in test [2] (setting [6]), > 20000 nM; in test [3], 21.6 nM; in test [4] (setting [7]), 893 nM.

Turning to `Cc1ncc(-c2cc3c(-c4cn(C5CS(=O)(=O)C5)nc4-c4ccc(F)cc4)ncnc3o2)s1` [Example 224, 3-{3-(4-fluorophenyl)-4-[6-(2-methyl-1,3-thiazol-5-yl)furo[2,3-d]pyrimidin-4-yl]-1H-pyrazol-1-yl}-16-thietane-1,1-dione], the IC50 was determined as 26.6 nM in test [1] (72 h), 1450 nM in test [2] (72 h), 0.14 nM in test [3] and 37.7 nM in test [4] (72 h).

Take `CN(C)C(=O)c1ccccc1-c1cc2c(-c3cn(C4CS(=O)(=O)C4)nc3-c3ccc(F)cc3)ncnc2o1` [Example 228, 2-{4-[1-(1,1-dioxo-1λ6-thietan-3-yl)-3-(4-fluorophenyl)-1H-pyrazol-4-yl]furo[2,3-d]pyrimidin-6-yl}-N,N-dimethylbenzamide]: the IC50 was determined as 667 nM in test [1] (setting [5]), 4560 nM in test [2] (setting [6]), 2.13 nM in test [3] and 384 nM in test [4] (setting [7]).

On to `CNC(=O)c1ccccc1-c1cc2c(-c3cn(C4CS(=O)(=O)C4)nc3-c3ccc(F)cc3)ncnc2o1` [Example 229, 2-{4-[1-(1,1-dioxo-1λ6-thietan-3-yl)-3-(4-fluorophenyl)-1H-pyrazol-4-yl]furo[2,3-d]pyrimidin-6-yl}-N-methylbenzamide], for which the IC50 was 292 nM in test [1] (setting [5]), 3760 nM in test [2] (setting [6]), 0.67 nM in test [3] and 169 nM in test [4] (setting [7]).

Regarding `Fc1ccc(-c2nn(CCOC(F)F)cc2-c2ncnc3oc(-c4ccccc4)cc23)cc1` [Example 231, 4-{1-[2-(difluoromethoxy)ethyl]-3-(4-fluorophenyl)-1H-pyrazol-4-yl}-6-phenylfuro[2,3-d]pyrimidine], the IC50 in test [1] (setting [5]) stood at 17.9 nM; in test [2] (setting [6]), 660 nM; in test [3] it was 0.46 nM; in test [4] (setting [7]) it was 35.4 nM.

With `N#CCCc1cccc(-c2cc3c(-c4cn(C5CS(=O)(=O)C5)nc4-c4ccc(F)cc4)ncnc3o2)c1` [Example 232, 3-(3-{4-[1-(1,1-dioxo-1λ6-thietan-3-yl)-3-(4-fluorophenyl)-1H-pyrazol-4-yl]furo[2,3-d]pyrimidin-6-yl}phenyl)propanenitrile], the IC50 in test [1] (setting [5]) is 9.42 nM; in test [2] (setting [6]) it was 301 nM; in test [3], 0.23 nM; in test [4] (setting [7]) it was 9.99 nM.

As for `Cc1cnc(-c2cc3c(-c4cn(C5CS(=O)(=O)C5)nc4-c4ccc(F)cc4)ncnc3o2)o1` [Example 234, 3-{3-(4-fluorophenyl)-4-[6-(5-methyl-1,3-oxazol-2-yl)furo[2,3-d]pyrimidin-4-yl]-1H-pyrazol-1-yl}-1λ6-thietane-1,1-dione], the IC50 in test [1] (setting [5]) turned out to be 438 nM; in test [2] (setting [6]), 2120 nM; in test [3], 3.6 nM; in test [4] (setting [7]), 309 nM.
